Reference: US9023789B2, “Amylin analogs and pharmaceutical compositions thereof” (Novo Nordisk A/S, priority 2012, dated 2015)
Converted amounts (≈) assume the structure as drawn. Where two headings read alike, the source gives them in different places. Numbered stars: 1 amine (or outer) side, 2 acyl side, 3 side chain; on linkers, the order of the positions; unused ones are H or OH. Bridge positions count the residues as written; N and C are the ends. Side chains are listed from the residue outwards. Peptide text beside a SMILES is read from it. * marks the point of attachment. C20 diacid = O=C(O)CCCCCCCCCCCCCCCCCCC(=O)*; γGlu = O=C(O)[C@H](CCC(=O)[*:2])N[*:1]; AEEA = NCCOCCOCC(=O)O

Legend:
[1] = ASSAY (IV) determination of solubility; type: physicochemical
Procedure, shortened: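 Samples of polypeptide, prepared from a water stock at […] and diluted 1:1 into 100 mM buffers spanning pH 3.0 to 8.0, stood 18 hours at room temperature. Polypeptide concentration was then determined by UPLC following centrifugation.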

[2] = molecular target: T1, human amylin receptor (membranes from Amylin 3(a)/CRE-luc cells) (Homo sapiens, UniProt O60896+P30988); test: ASSAY (V) binding to the human amylin receptor (SPA, 125I-rat amylin);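 note: competition binding of cell membranes (35 ng/µL) mixed with SPA beads in 384-well plates at 40 µL total volume, read by scintillation counting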
T1 construct: expressed in transfected cells
T1 sequence (P30988 25-474): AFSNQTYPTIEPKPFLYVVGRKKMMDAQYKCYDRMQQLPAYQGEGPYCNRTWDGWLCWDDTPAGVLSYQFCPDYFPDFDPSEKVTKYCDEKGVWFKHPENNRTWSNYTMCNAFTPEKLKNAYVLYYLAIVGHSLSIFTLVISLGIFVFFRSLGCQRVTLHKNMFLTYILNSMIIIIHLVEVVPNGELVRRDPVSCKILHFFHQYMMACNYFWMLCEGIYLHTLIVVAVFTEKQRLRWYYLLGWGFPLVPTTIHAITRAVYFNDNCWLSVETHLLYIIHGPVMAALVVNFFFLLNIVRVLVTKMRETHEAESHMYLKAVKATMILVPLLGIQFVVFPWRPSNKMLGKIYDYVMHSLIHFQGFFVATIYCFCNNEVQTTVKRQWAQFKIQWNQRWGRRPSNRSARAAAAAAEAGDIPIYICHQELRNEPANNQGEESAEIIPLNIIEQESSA
T1 sequence (O60896 24-148 partner): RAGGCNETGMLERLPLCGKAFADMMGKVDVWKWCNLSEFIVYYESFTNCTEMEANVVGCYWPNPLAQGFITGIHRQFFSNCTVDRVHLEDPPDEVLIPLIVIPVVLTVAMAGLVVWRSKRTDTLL

[3] = molecular target: T2, human amylin 3(a) receptor (human calcitonin receptor + RAMP-3) in BHK570 cells (Homo sapiens, UniProt O60896+P30988); test: ASSAY (II)a functional assay, human amylin receptor (CRE luciferase); type: cell-based
T2 construct: expressed in transfected cells
Procedure, shortened: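 Readout is luminescence from a cAMP-responsive CRE-luc reporter, developed with LucLite for 30 min at room temperature. Cells were treated for 3 h at 37 °C in 10% FBS/DMEM buffered with 10 mM Hepes (pH 7.4).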

[4] = bistrispropane buffer, pH 6.5, read-out: Solubility pH 6.5 Concentration
[5] = bistrispropane buffer, pH 7.5, read-out: Solubility pH 7.5 Concentration
[6] = bistrispropane buffer, pH 6.0, read-out: Solubility pH 6.0 Concentration
[7] = bistrispropane buffer, pH 7.0, read-out: Solubility pH 7.0 Concentration
[8] = bistrispropane buffer, pH 8.0, read-out: Solubility pH 8.0 Concentration
[9] = glycylglycine buffer, pH 3.0, read-out: Solubility pH 3.0 Concentration
[10] = glycylglycine buffer, pH 4.0, read-out: Solubility pH 4.0 Concentration
[11] = glycylglycine buffer, pH 5.0, read-out: Solubility pH 5.0 Concentration
[12] = Table 5, selectivity, hCTR bind IC50 / hAmylin-R bind IC50
[13] = Table 5a, selectivity, hCTR bind IC50 / hAmylin-R bind IC50
[14] = Table 7, human binding selectivity, included for comparison
[15] = Table 7a (preferred compounds), human binding selectivity, included for comparison
[16] = ratio of human calcitonin receptor binding IC50 to human amylin receptor binding IC50
[17] = hCTR funct. EC50 divided by hAmylin-R funct. EC50
[18] = hCTR funct. EC50 over hAmylin-R funct. EC50
[19] = human functional selectivity: hCTR funct. EC50 / hAmylin-R funct. EC50
[20] = Table 5b, selectivity, hCTR bind IC50 / hAmylin-R bind IC50
[21] = Table 5c, selectivity, hCTR bind IC50 / hAmylin-R bind IC50

Compound	solubility at 18 h [1, 4] [µM]	solubility at 18 h [1, 5] [µM]	solubility at 18 h [1, 6] [µM]	solubility at 18 h [1, 7] [µM]	solubility at 18 h [1, 8] [µM]	solubility at 18 h [1, 9] [µM]	solubility at 18 h [1, 10] [µM]	solubility at 18 h [1, 11] [µM]	Ratio hCT/hAmylin binding [2, 12]	Ratio hCT/hAmylin binding [2, 13]	Ratio hCT/hAmylin binding [2, 14]	Ratio hCT/hAmylin binding [2, 15]	Ratio hCT/hAmylin binding [2, 16]	Ratio hCT/hAmylin funct. [3, 17]	Ratio hCT/hAmylin funct. [3, 18]	Ratio hCT/hAmylin funct. [3, 19]	Ratio hCT/hAmylin binding [2, 20]	Ratio hCT/hAmylin binding [2, 21]	Solubility pH 6.5 Concentration ([1]; pH 6.5 (Table 9a))	Solubility pH 7.0 Concentration ([1]; pH 7.0 (Table 9a))
CC[C@H](C)[C@H](NC(=O)[C@H](C)NC(=O)CNC(=O)[C@H](Cc1ccccc1)NC(=O)[C@H](CC(N)=O)NC(=O)[C@@H]1CCCN1C(=O)[C@H](CO)NC(=O)[C@H](CO)NC(=O)[C@H](Cc1c[nH]cn1)NC(=O)[C@H](CCCNC(=N)N)NC(=O)[C@H](CC(C)C)NC(=O)[C@H](Cc1ccccc1)NC(=O)[C@H](CC(N)=O)NC(=O)[C@H](C)NC(=O)[C@H](CC(C)C)NC(=O)[C@H](CCCNC(=N)N)NC(=O)[C@H](CCC(N)=O)NC(=O)[C@@H](NC(=O)[C@H](C)NC(=O)[C@@H]1CSSC[C@H](NC(=O)[C@@H](N)CCCCNC(=O)COCCOCCNC(=O)CC[C@H](NC(=O)CCCCCCCCCCCCCCCCCCC(=O)O)C(=O)O)C(=O)N[C@@H](CC(N)=O)C(=O)N[C@@H]([C@@H](C)O)C(=O)N[C@@H](C)C(=O)N[C@@H]([C@@H](C)O)C(=O)N1)[C@@H](C)O)C(=O)N1CCC[C@H]1C(=O)N[C@@H](CO)C(=O)N[C@@H](CO)C(=O)N[C@H](C(=O)N1CCC[C@H]1C(=O)N[C@H](C(=O)NCC(=O)N[C@@H](CO)C(=O)N[C@@H](CC(N)=O)C(=O)N[C@H](C(=O)N[C@@H](Cc1ccc(O)cc1)C(N)=O)[C@@H](C)O)C(C)C)[C@@H](C)O [Example 49]	≥ 200	≥ 200	≥ 200	≥ 200	≥ 200	≥ 200	≥ 200	≥ 200	10.8	10.8	10.8	10.8	10.8	22.5	22.5	22.5				
CC[C@H](C)[C@H](NC(=O)[C@H](C)NC(=O)CNC(=O)[C@H](Cc1ccccc1)NC(=O)[C@H](CC(N)=O)NC(=O)[C@@H]1CCCN1C(=O)[C@H](CO)NC(=O)[C@H](CO)NC(=O)[C@H](Cc1c[nH]cn1)NC(=O)[C@H](CCCNC(=N)N)NC(=O)[C@H](CC(C)C)NC(=O)[C@H](Cc1ccccc1)NC(=O)[C@H](CC(N)=O)NC(=O)[C@H](C)NC(=O)[C@H](CC(C)C)NC(=O)[C@H](CCCNC(=N)N)NC(=O)[C@H](CCC(N)=O)NC(=O)[C@@H](NC(=O)[C@H](C)NC(=O)[C@@H]1CSSC[C@H](NC(=O)[C@@H](N)CCCCNC(=O)COCCOCCNC(=O)CC[C@H](NC(=O)CCCCCCCCCCCCCCCCCCC(=O)O)C(=O)O)C(=O)N[C@@H](CC(N)=O)C(=O)N[C@@H]([C@@H](C)O)C(=O)N[C@@H](C)C(=O)N[C@@H]([C@@H](C)O)C(=O)N1)[C@@H](C)O)C(=O)N1CCC[C@H]1C(=O)N1CCC[C@H]1C(=O)N[C@@H](CO)C(=O)N[C@H](C(=O)N1CCC[C@H]1C(=O)N[C@H](C(=O)NCC(=O)N[C@@H](CO)C(=O)N[C@@H](CC(N)=O)C(=O)N[C@H](C(=O)N[C@@H](Cc1ccc(O)cc1)C(N)=O)[C@@H](C)O)C(C)C)[C@@H](C)O [Example 53] (H-K([AEEA-γGlu-C20 diacid])CNTATCATQRLANFLRHSSPNFGAIPPSTPVGSNTY-NH2; disulfide 2-7; N-terminus assumed)	≥ 200	≥ 200	≥ 200	≥ 200	≥ 200	≥ 200	≥ 200	≥ 200	103.5	103.5	103.5	103.5	103.5	9.8		9.8	103.5	103.5		
CC[C@H](C)[C@H](NC(=O)[C@H](C)NC(=O)CNC(=O)[C@H](Cc1ccccc1)NC(=O)[C@H](CC(N)=O)NC(=O)[C@@H]1CCCN1C(=O)[C@H](CO)NC(=O)[C@H](CO)NC(=O)[C@H](Cc1c[nH]cn1)NC(=O)[C@H](CCCNC(=N)N)NC(=O)[C@H](CC(C)C)NC(=O)[C@H](Cc1ccccc1)NC(=O)[C@H](CC(N)=O)NC(=O)[C@H](C)NC(=O)[C@H](CC(C)C)NC(=O)[C@H](CCCNC(=N)N)NC(=O)[C@H](CCC(N)=O)NC(=O)[C@@H](NC(=O)[C@H](C)NC(=O)[C@@H]1CSSC[C@H](NC(=O)[C@@H](N)CCCCNC(=O)COCCOCCNC(=O)CC[C@H](NC(=O)CCCCCCCCCCCCCCCCCCC(=O)O)C(=O)O)C(=O)N[C@@H](CC(N)=O)C(=O)N[C@@H]([C@@H](C)O)C(=O)N[C@@H](C)C(=O)N[C@@H]([C@@H](C)O)C(=O)N1)[C@@H](C)O)C(=O)N1CCC[C@H]1C(=O)N[C@@H](CO)C(=O)N1CCC[C@H]1C(=O)N[C@H](C(=O)N[C@@H](CC(N)=O)C(=O)N[C@H](C(=O)NCC(=O)N1CCC[C@H]1C(=O)N[C@@H](CC(N)=O)C(=O)N[C@H](C(=O)N[C@@H](Cc1ccc(O)cc1)C(N)=O)[C@@H](C)O)C(C)C)[C@@H](C)O [Example 56] (H-K([AEEA-γGlu-C20 diacid])CNTATCATQRLANFLRHSSPNFGAIPSPTNVGPNTY-NH2; disulfide 2-7 (inferred); N-terminus assumed)	≥ 200	≥ 200	≥ 200	≥ 200	147 (≈ 668 µg/mL)	≥ 200	≥ 200	≥ 200	42.6	42.6	42.6	42.6	42.6	5.0		5.0	42.6	42.6		
CC[C@H](C)[C@H](NC(=O)[C@H](C)NC(=O)CNC(=O)[C@H](Cc1ccccc1)NC(=O)[C@H](CC(N)=O)NC(=O)[C@@H]1CCCN1C(=O)[C@H](CO)NC(=O)[C@H](CO)NC(=O)[C@H](Cc1c[nH]cn1)NC(=O)[C@H](CCCNC(=N)N)NC(=O)[C@H](CC(C)C)NC(=O)[C@H](Cc1ccccc1)NC(=O)[C@H](CC(N)=O)NC(=O)[C@H](C)NC(=O)[C@H](CC(C)C)NC(=O)[C@H](CCCNC(=N)N)NC(=O)[C@H](CCC(N)=O)NC(=O)[C@@H](NC(=O)[C@H](C)NC(=O)[C@@H]1CSSC[C@H](NC(=O)[C@@H](N)CCCCNC(=O)COCCOCCNC(=O)CC[C@H](NC(=O)CCCCCCCCCCCCCCCCCCC(=O)O)C(=O)O)C(=O)N[C@@H](CC(N)=O)C(=O)N[C@@H]([C@@H](C)O)C(=O)N[C@@H](C)C(=O)N[C@@H]([C@@H](C)O)C(=O)N1)[C@@H](C)O)C(=O)N1CCC[C@H]1C(=O)N[C@@H](CO)C(=O)N[C@@H](CO)C(=O)N[C@H](C(=O)N[C@@H](CC(N)=O)C(=O)N[C@H](C(=O)NCC(=O)N1CCC[C@H]1C(=O)N[C@@H](Cc1c[nH]cn1)C(=O)N[C@H](C(=O)N[C@@H](Cc1ccc(O)cc1)C(N)=O)[C@@H](C)O)C(C)C)[C@@H](C)O [Example 58] (H-K([AEEA-γGlu-C20 diacid])CNTATCATQRLANFLRHSSPNFGAIPSSTNVGPHTY-NH2; disulfide 2-7)	≥ 200	96 (≈ 438 µg/mL)	≥ 200	≥ 200	48 (≈ 219 µg/mL)	≥ 200	≥ 200	≥ 200	109.4	109.4	109.4	109.4	109.4	21.9	21.9	21.9	109.4	109.4	≧200 μM	≧200 μM
